These results are taken from ChEMBL document CHEMBL4392886, “Antibacterial and Antibiofilm Activity of Flavonoid and Saponin Derivatives from Atriplex tatarica against Pseudomonas aeruginosa” (2019).

Structures are written as SMILES. Values after ≈ are worked out from the molar mass of the structure shown. Active and inactive are the calls of the source.

Holding throughout (assay type): functional
In assay [1] the test system is Listeria monocytogenes. In words: Antibacterial activity against Listeria monocytogenes NCTC 7973 by microdilution method. On the technique in general: In broth dilution the organism is exposed to a series of concentrations in liquid medium.
Assay [2] relates to Escherichia coli. In words: Antibacterial activity against Escherichia coli ATCC 35210 by microdilution method.
Assay [3] concerns Pseudomonas aeruginosa. In words: Antibiofilm activity against Pseudomonas aeruginosa PAO1 assessed as inhibition of biofilm formation at 0.125 times MIC incubated for 24 hrs by crystal violet staining based ELISA method. On the technique in general: In an ELISA, binding on a coated surface is turned into a signal by an enzyme label.
Assay [4] relates to Micrococcus flavus. In words: Antibacterial activity against Micrococcus flavus ATCC 10240 by microdilution method.
Assay [5] has as its system Pseudomonas aeruginosa. In words: Antibiofilm activity against Pseudomonas aeruginosa PAO1 assessed as inhibition of biofilm formation at 0.25 times MIC incubated for 24 hrs by crystal violet staining based ELISA method.
The subject of assay [6] is Micrococcus flavus. In words: Bactericidal activity against Micrococcus flavus ATCC 10240 by microdilution method.
Assay [7] relates to Pseudomonas aeruginosa. In words: Antibiofilm activity against Pseudomonas aeruginosa PAO1 assessed as inhibition of biofilm formation at 0.5 times MIC incubated for 24 hrs by crystal violet staining based ELISA method.
For assay [8], the system named is Listeria monocytogenes. In words: Bactericidal activity against Listeria monocytogenes NCTC 7973 by microdilution method.
The test system of assay [9] is Pseudomonas aeruginosa. In words: Bactericidal activity against Pseudomonas aeruginosa ATCC 27853 by microdilution method.
In assay [10] the test system is Escherichia coli. In words: Bactericidal activity against Escherichia coli ATCC 35210 by microdilution method.
The subject of assay [11] is Pseudomonas aeruginosa. In words: Antibacterial activity against Pseudomonas aeruginosa ATCC 27853 by microdilution method.

As a reminder, the MIC is the smallest concentration in the dilution series that meets the test's criterion for growth inhibition. A word on the MBC: it is the smallest concentration meeting the test's criterion for killing. A higher MBC goes with weaker bactericidal potency. Turning to `CC1(C)[C@@H](O[C@H]2OC[C@H](O)[C@H](O)[C@H]2O[C@H]2O[C@H](CO)[C@@H](O)[C@H](O)[C@H]2OS(=O)(=O)O)CC[C@]2(C)[C@H]3CC=C4[C@@H]5C[C@@](C)(C=O)CC[C@]5(C(=O)O[C@H]5O[C@H](CO)[C@@H](O)[C@H](O)[C@H]5O)CC[C@@]4(C)[C@]3(C)CC[C@@H]12`, the MIC came out at 1990 µM (≈ 2000 µg/mL) in assay [1], 497 µM (≈ 501 µg/mL) in assay [2], 596 µM (≈ 601 µg/mL) in assay [4] and 994 µM (≈ 1000 µg/mL) in assay [11]. In addition, the “inhibition (INH)” value in assay [3] worked out at 7.2%; in [5] it was 45.9%; in [7], 56.6%. Further, the MBC was 1190 µM (≈ 1200 µg/mL) in [6], 2490 µM (≈ 2500 µg/mL) in assay [8], 1190 µM (≈ 1200 µg/mL) in assay [9] and 596 µM (≈ 601 µg/mL) in [10].
As for `COc1cc(/C=C/C(=O)O[C@H]2[C@H](O[C@H]3[C@@H](Oc4c(-c5ccc(O)c(O)c5)oc5cc(O)c(OC)c(O)c5c4=O)O[C@H](CO)[C@@H](O)[C@@H]3O)O[C@@H](C(=O)O)[C@@H](O)[C@@H]2O)ccc1O`, the MIC amounted to 886 µM (≈ 751 µg/mL) in assay [1], 591 µM (≈ 500 µg/mL) in [2], 296 µM (≈ 250 µg/mL) in assay [4] and 296 µM (≈ 250 µg/mL) in assay [11]. The results for the “inhibition (INH)” value in assay [3], in [5] and in assay [7] were 1.8%, 26.2% and 43%, respectively. The MBC is 473 µM (≈ 400 µg/mL) in assay [6], 1180 µM (≈ 1000 µg/mL) in assay [8], 473 µM (≈ 400 µg/mL) in assay [9] and 1180 µM (≈ 1000 µg/mL) in assay [10].
`CC1(C)[C@@H](O[C@H]2OC[C@H](O)[C@H](O)[C@H]2O[C@H]2O[C@H](CO)[C@@H](O)[C@H](O)[C@H]2O[C@H]2O[C@H](CO)[C@@H](O)[C@H](O)[C@H]2O)CC[C@]2(C)[C@H]3CC=C4[C@@H]5C[C@@](C)(C=O)CC[C@]5(C(=O)O[C@H]5O[C@H](CO)[C@@H](O)[C@H](O)[C@H]5O)CC[C@@]4(C)[C@]3(C)CC[C@@H]12`: the minimum inhibitory concentration (MIC) in [1] was 1150 µM (≈ 1250 µg/mL); in assay [2], 919 µM (≈ 1000 µg/mL); in assay [4] it was 919 µM (≈ 1000 µg/mL); in assay [11], 689 µM (≈ 751 µg/mL). Further, in assay [3], the inhibition result is “inactive”. Further, the figures for the “inhibition (INH)” value in assay [5] and in assay [7] were 39.4% and 53.4%, respectively. For the same compound, the MBC turned out to be 1380 µM (≈ 1500 µg/mL) in assay [6], 1840 µM (≈ 2000 µg/mL) in assay [8], 1380 µM (≈ 1500 µg/mL) in [9] and 1380 µM (≈ 1500 µg/mL) in assay [10].
On to `CC1(C)[C@@H](O[C@H]2OC[C@H](O)[C@H](O)[C@H]2O[C@H]2O[C@H](CO)[C@@H](O)[C@H](O)[C@H]2OS(=O)(=O)O)CC[C@]2(C)[C@H]3CC=C4[C@@H]5C[C@@](C)(CO)CC[C@]5(C(=O)O[C@H]5O[C@H](CO)[C@@H](O)[C@H](O)[C@H]5O)CC[C@@]4(C)[C@]3(C)CC[C@@H]12`, for which the “inhibition (INH)” value in assay [3] is recorded as 12.5%; in assay [5], 21.9%; in [7], 26.5%. The MBC in assay [9] amounted to 744 µM (≈ 751 µg/mL). Moreover, the MIC in [11] worked out at 496 µM (≈ 501 µg/mL).
For the compound `COc1cc(/C=C/C(=O)OC[C@@]2(O)CO[C@@H](O[C@H]3[C@@H](Oc4c(-c5ccc(O)c(O)c5)oc5cc(O)c(OC)c(O)c5c4=O)O[C@H](CO)[C@@H](O)[C@@H]3O)[C@@H]2O)ccc1O`, the MIC in assay [1] turned out to be 935 µM (≈ 751 µg/mL); in [2], 499 µM (≈ 400 µg/mL); in assay [4], 312 µM (≈ 250 µg/mL); in assay [11], 312 µM (≈ 250 µg/mL). Besides, the inhibition entry in assay [3] was “inactive”. Besides, the “inhibition (INH)” value in [5] was determined as 4.3%; in assay [7], 20.1%. Further, the MBC in [6] came to 623 µM (≈ 500 µg/mL); in assay [8], 1250 µM (≈ 1000 µg/mL); in assay [9], 623 µM (≈ 500 µg/mL); in assay [10], 623 µM (≈ 500 µg/mL).
`CC1(C)S[C@@H]2[C@H](NC(=O)[C@H](N)c3ccccc3)C(=O)N2[C@H]1C(=O)O` [AMPICILLIN]: the MIC was 1150 µM (≈ 400 µg/mL) in assay [1], 716 µM (≈ 250 µg/mL) in [2], 716 µM (≈ 250 µg/mL) in [4] and 2150 µM (≈ 751 µg/mL) in assay [11]. Further, the “inhibition (INH)” value in [3] is reported as 85.2%; in [5], 58.9%; in assay [7], 65.3%. For the same compound, the MBC in [6] came out at 1150 µM (≈ 400 µg/mL); in assay [8], 1430 µM (≈ 501 µg/mL); in [9], 3580 µM (≈ 1250 µg/mL); in [10] it was 1430 µM (≈ 501 µg/mL).
For `COc1c(O)cc2oc(-c3ccc(O)c(O)c3)c(O[C@H]3O[C@H](CO)[C@@H](O)[C@H](O)[C@H]3O[C@@H]3OC[C@](O)(CO)[C@H]3O)c(=O)c2c1O`, the MIC is 639 µM (≈ 400 µg/mL) in assay [1], 399 µM (≈ 250 µg/mL) in [2], 399 µM (≈ 250 µg/mL) in assay [4] and 399 µM (≈ 250 µg/mL) in assay [11]. For the same compound, the inhibition result in assay [3] was “inactive”. For the same compound, the “inhibition (INH)” value in assay [5] is given as 12.2%; in assay [7], 58.1%. Further, the MBC in [6] turned out to be 639 µM (≈ 400 µg/mL); in [8], 1200 µM (≈ 751 µg/mL); in assay [9], 639 µM (≈ 400 µg/mL); in assay [10], 639 µM (≈ 400 µg/mL).
For `CN[C@@H]1[C@H](O[C@H]2[C@H](O[C@H]3[C@H](O)[C@@H](O)[C@H](N=C(N)N)[C@@H](O)[C@@H]3N=C(N)N)O[C@@H](C)[C@]2(O)C=O)O[C@@H](CO)[C@H](O)[C@H]1O` [STREPTOMYCIN], the MIC in assay [1], in assay [2], in [4] and in assay [11] was 344 µM (≈ 200 µg/mL) in each case. The “inhibition (INH)” value in assay [3] came to 89.3%; in assay [5], 74.6%; in [7], 52.5%. Moreover, the MBC in [6], in assay [8], in assay [9] and in [10] was 516 µM (≈ 300 µg/mL) throughout.
